According to patent US8999970B2, “Administration of an anti-obesity compound to individuals with renal impairment” (Arena Pharmaceuticals, Inc., priority 2010, dated 2015):
“Also recorded” adds a separate entry of the source.

Experiment: Dynamic moisture (vapor) sorption of Form III
Assay type: physicochemical

Compound: C[C@H]1CNCCc2ccc(Cl)cc21.C[C@H]1CNCCc2ccc(Cl)cc21.Cl.Cl.O [(R)-8-chloro-1-methyl-2,3,4,5-tetrahydro-1H-3-benzazepine hydrochloride hemihydrate, Form III]
- Hygroscopicity (DMS / DVS): substantially non-hygroscopic; also recorded: FIG. 9: non-hygroscopic
- Water adsorbed (90% RH): less than 0.5 wt %
